The NIST ThermoML archive (doi:10.1021/je034278t)
Numbers after ± are expanded uncertainties.

Conditions: Liquid

With CC[S+]([O-])CC [diethyl sulfoxide] the “vapor or sublimation pressure” value (298.15 K) was 0.0202 ± 0.0046 kPa, the “vapor or sublimation pressure” value (303.15 K) was 0.0339 ± 0.005 kPa and the “vapor or sublimation pressure” value (308.15 K) was 0.0438 ± 0.0054 kPa. The “vapor or sublimation pressure” value (313.15 K) was 0.0681 ± 0.0064 kPa and the “vapor or sublimation pressure” value (318.15 K) was 0.0924 ± 0.0075 kPa.
